≈ marks a conversion by molar mass, not a printed value.
How the values were obtained:
[1] = system: M. luteus; test: Biofilm inhibition assay (crystal violet); format: cell-based, Micrococcus luteus
Procedure: (§1) In a 96-well plate, biofilm grown cultures of M. hydrocarbonoclasticus and C. marina were incubated with napyradiomycins (1–12) at a concentration of 31.25 µg/mL. After discarding the media, biofilm inhibition was determined from OD600 measurements of crystal violet stained cells resuspended from the plate bottom with acetic acid.
(§2) Five marine bacterial species were used as models to assess antimicrofouling activity. The biofilm-forming marine bacteria Marinobacter hydrocarbonoclasticus DSM 8798 (ATCC 49840), Cobetia marina DSM 4741, Phaeobacter inhibens DSM 17,395, and Pseusooceanicola batsensis DSM 15,984 were obtained from DSMZ (Leibniz Institute DSMZ—German collection of Microorganisms and Cell Cultures) and Micrococcus luteus. Cultures were routinely grown in liquid marine broth (Carl Roth GmbH, Karlsruhe, Germany) with agitation (180 rpm) or on agar-supplemented marine broth, at 28 °C (M. hydrocarbonoclasticus and C. marina) or 30 °C (P. inhibens and P. batsensis). M. luteus was maintained in Brain Heart Infusion broth (BHI, Becton Dickinson, GmbH, Heidelberg, Germany) with agitation (180 rpm) or on agar-supplemented BHI, at 37 °C.
(§3) The antibiofilm activity of napyradiomycins (1–12) against the five marine bacterial species was assessed in 96-well polystyrene flat bottom microplates (Nunclon Delta Surface, Thermo Scientific, Roskilde, Denmark) as previously reported. For initial screening, bacterial overnight cultures were diluted to an optical density (OD600nm) value of 0.2 and incubated statically at 28 °C (M. hydrocarbonoclasticus, C. marina), 30 °C (P. inhibens, P. batsensis) or 37 °C (M. luteus) in the 96-well microplate in the presence or absence of 31.25 µg/mL of napyradiomycins, solubilized in DMSO. After 24 h (M. hydrocarbonoclasticus, C. marina) or 48 h (P. batsensis, P. inhibens, M. luteus) incubation, the OD600nm was determined. The planktonic cells and media were discarded, and the wells were washed twice with deionized water. The biofilm was fixed for 1 h at 60 °C and stained with crystal violet 0.06% for 10 min. The dye was discarded, and the wells were again washed twice with deionized water. The stained biofilm was solubilized with 30% acetic acid and the OD600nm was determined. […] The percentage of biofilm inhibition was calculated as the amount of biofilm relative to that of the bacterial species without added compounds (with the same amount of DMSO added). CuSO4 (5 μM), a potent antifouling agent used in antifouling paints, was used as reference.
(§4) All assays were performed in triplicate, and results are representative of the average and standard error of the mean (SEM). Statistical analysis was performed in GraphPad Prism 8.0.2, using one-way ANOVA followed by a Dunnett’s multiple comparisons test against the control (species grown with the same amount of DMSO added).

[2] = system: P. inhibens; test: Biofilm inhibition assay (crystal violet); format: cell-based, Phaeobacter inhibens; details: 31.25 µg/mL
Procedure: as §1, §2, §3
All assays were performed in triplicate, and results are representative of the average and standard error of the mean (SEM). […]

[3] = system: P. batsensis; test: Biofilm inhibition assay (crystal violet); format: cell-based, Pseudooceanicola batsensis; details: Pseudooceanicola batsensis; 31.25 µg/mL; read-out: % Biofilm Inhibition ± SEM P. batsensis
Procedure: as §1, §2, §3, §4

[4] = Mussel plantigrade larvae settlement, 15 h acute exposure assay; format: in vivo; details: Mytilus galloprovincialis (mussel, plantigrade larvae), in vivo, no mortality at highest tested concentration 12 µg/mL
Procedure: (§5) Mussel (M. galloprovincialis) adhesive larvae (plantigrades) were used to assess in vivo the antifouling activity of napyradiomycins (1–12) towards macrofouling. Juvenile mussel aggregates were collected at the intertidal rocky shore during low spring tides, at Memória beach, Matosinhos, Portugal (41°13′59″ N; 8°43′28″ W). At the laboratory, immediately before the bioassays, mussel plantigrade larvae were screened and isolated from the juvenile aggregates using a binocular microscope (Olympus SZX2-ILLT, Hamburg, Germany) and washed with filtered seawater to remove organic debris. Only competent plantigrade larvae (those showing foot exploratory behavior) were selected and used in the exposure bioassays following previously validated procedures. Plantigrades were exposed in 24-well polystyrene plates for 15 h in the darkness at 18 °C. DMSO was used as solvent for crude extracts, fractions and pure compounds stock and working solutions. Working solutions were prepared by successive dilutions of stock solutions in DMSO and then diluted in filtered seawater to obtain the test solutions. DMSO concentration in test solutions was always 0.1%. Four well replicates were used per condition with five larvae per well. Two negative controls, one with ultra-pure water and the other with DMSO 0.1% were included in all bioassays, as well as a positive control with 5 μM CuSO4 (a potent antifouling agent). Anti-settlement bioactivity was determined by the presence/absence of fixed byssal threads produced by each individual larvae for all the conditions tested. […] Chi-square Pearsons goodness-of-fit test was applied to data in order to determine EC50. Significance was considered at p < 0.01 for all analyses, and 95% lower and upper confidence limits [95% LCL; UCL] were presented. Therapeutic ratio (LC50/EC50) was used to evaluate the effectiveness vs. toxicity of compounds [19, 21].

[5] = system: M. galloprovincialis plantigrade larvae; test: as above; format: in vivo; details: 95% LCL, UCL in brackets; for EC50: Mytilus galloprovincialis, 15 h, read-out: EC50 [Conf. limits] larval settlement
Procedure: as §5

[6] = system: M. hydrocarbonoclasticus; test: Biofilm inhibition assay (crystal violet); format: cell-based, Marinobacter hydrocarbonoclasticus; details: Marinobacter nauticus; for inhibition at 31.25 µg/mL: read-out: % Biofilm Inhibition ± SEM M. hydrocarbonoclasticus
Procedure: as §1, §2, §3, §4

[7] = system: M. luteus; test: Bacterial growth inhibition assay (OD600nm); format: cell-based, Micrococcus luteus
From the text: as §2
(§6) The antibacterial activity of the napyradiomycins (1–12) was assessed in 96-well polystyrene flat bottom microplates (Nunclon Delta Surface, Thermo Scientific, Roskilde, Denmark) following previously reported procedures. […] After 24 h (M. hydrocarbonoclasticus, C. marina) or 48 h (P. batsensis, P. inhibens, M. luteus) incubation, the OD600nm was determined (Molecular Devices, Spectra Max 190). […] The percentage of growth inhibition was calculated as the amount of growth relative to that of the bacterial species without added compounds (with the same amount of DMSO added). CuSO4 (5 μM), a potent antifouling agent used in antifouling paints, was used as reference.
as §4, with “8.0.2 (San Diego, CA, USA),” for “8.0.2,”

[8] = system: C. marina; test: Biofilm inhibition assay (crystal violet); format: cell-based, Cobetia marina; details: 31.25 µg/mL
Procedure: as §1, §2, §3, §4

[9] = system: C. marina; test: Bacterial growth inhibition assay (OD600nm); format: cell-based, Cobetia marina; details: 31.25 µg/mL
From the text: as §2, §6
as §4, with “8.0.2 (San Diego, CA, USA),” for “8.0.2,”

[10] = system: M. hydrocarbonoclasticus; test: Bacterial growth inhibition assay (OD600nm); format: cell-based, Marinobacter hydrocarbonoclasticus; details: 31.25 µg/mL
Procedure: As a first screening approach, liquid cultures of M. hydrocarbonoclasticus, and C. marina in a 96-well format were analyzed for bacterial growth inhibition by percent decrease in OD600 after incubation with napyradiomycins (1–12) at 31.25 µg/mL.
as §2
The antibacterial activity of the napyradiomycins (1–12) was assessed in 96-well polystyrene flat bottom microplates (Nunclon Delta Surface, Thermo Scientific, Roskilde, Denmark) following previously reported procedures. For initial screening, bacterial overnight cultures were diluted to an optical density (OD600nm) of 0.2 and incubated statically at 28 °C (M. hydrocarbonoclasticus, C. marina), 30 °C (P. inhibens, P. batsensis) or 37 °C (M. luteus) in a 96-well microplate in the presence or absence of 31.25 µg/mL of the napyradiomycins, solubilized in DMSO. After 24 h (M. hydrocarbonoclasticus, C. marina) or 48 h (P. batsensis, P. inhibens, M. luteus) incubation, the OD600nm was determined (Molecular Devices, Spectra Max 190). […] The percentage of growth inhibition was calculated as the amount of growth relative to that of the bacterial species without added compounds (with the same amount of DMSO added). CuSO4 (5 μM), a potent antifouling agent used in antifouling paints, was used as reference.
as §4, with “8.0.2 (San Diego, CA, USA),” for “8.0.2,”

C=C(C)C(O)CC/C(C)=C/C[C@@]12OC(C)(C)[C@H](Cl)C[C@]1(Cl)C(=O)c1c(O)cc(O)cc1C2=O (stereo partly drawn) [Napyradiomycin 4, napyradiomycin A2]
% inhibition of biofilm formation M. luteus ([1]; 0.98 µg/mL): 93.8 ± 4.1%
inhibition at 0.98 µg/mL ([1]; Micrococcus luteus, 0.98 µg/mL, read-out: % inhibition of biofilm formation M. luteus): > 90%
inhibition at 1.95 µg/mL ([1]; Micrococcus luteus, 1.95 µg/mL, read-out: % inhibition of biofilm formation M. luteus): 91.7 ± 0.9%
inhibition at 3.91 µg/mL ([1]; Micrococcus luteus, 3.91 µg/mL, read-out: % inhibition of biofilm formation M. luteus): 100 ± 0.4%
inhibition at 7.81 µg/mL ([1]; Micrococcus luteus, 7.81 µg/mL, read-out: % inhibition of biofilm formation M. luteus): 86.7 ± 3%
inhibition at 15.6 µg/mL ([1]; Micrococcus luteus, 15.6 µg/mL, read-out: % inhibition of biofilm formation M. luteus): 88.8 ± 4.2%
inhibition at 31.25 µg/mL ([1]; Micrococcus luteus, 31.25 µg/mL, read-out: % Biofilm Inhibition ± SEM M. luteus): 97 ± 1.2%
% Biofilm Inhibition ± SEM P. inhibens [2]: N.I.
inhibition at 31.25 µg/mL [3]: 13.4 ± 0.8%
LC50 at 15 h [4]: > 12 µg/mL
EC50 [5]: 6.34 µg/mL (≈ 12.7 µM)
inhibition at 0.98 µg/mL ([6]; 0.98 µg/mL, read-out: % inhibition of biofilm formation M. hydro.): 56.1 ± 5.6%
inhibition at 1.95 µg/mL ([6]; 1.95 µg/mL, read-out: % inhibition of biofilm formation M. hydro.): 78.1 ± 3%
inhibition at 3.91 µg/mL ([6]; 3.91 µg/mL, read-out: % inhibition of biofilm formation M. hydro.): 84.5 ± 2%
inhibition at 7.81 µg/mL ([6]; 7.81 µg/mL, read-out: % inhibition of biofilm formation M. hydro.): 67 ± 5.5%
inhibition at 15.6 µg/mL ([6]; 15.6 µg/mL, read-out: % inhibition of biofilm formation M. hydro.): 82.3 ± 1.5%
inhibition at 31.25 µg/mL [6]: 56.9 ± 5.7%
inhibition at 0.98 µg/mL ([7]; Micrococcus luteus, 0.98 µg/mL): 38.7 ± 1.9%
inhibition at 1.95 µg/mL ([7]; Micrococcus luteus, 1.95 µg/mL): 51.7 ± 4.5%
inhibition at 3.91 µg/mL ([7]; Micrococcus luteus, 3.91 µg/mL): 61.2 ± 3.7%
inhibition at 7.81 µg/mL ([7]; Micrococcus luteus, 7.81 µg/mL): 53.3 ± 5.7%
inhibition at 15.6 µg/mL ([7]; Micrococcus luteus, 15.60 µg/mL): 60.1 ± 8.5%
inhibition at 31.25 µg/mL ([7]; Micrococcus luteus, 31.25 µg/mL): 72.5 ± 7.7%
% growth inhibition M. luteus ([7]; all tested concentrations): approximately 50%
% Biofilm Inhibition ± SEM C. marina [8]: N.I.

Cc1c(O)cc2c(c1O)C(=O)C1(Cl)CC(Cl)C(C)(C)OC1(CC1C(C)(O)CCC(Cl)C1(C)C)C2=O (stereo not drawn) [Napyradiomycin 10, napyradiomycin A80915C]
% growth inhibition C. marina [9]: did not inhibit growth
% growth inhibition M. hydrocarbonoclasticus [10]: did not inhibit growth
LC50 at 15 h [4]: > 12 µg/mL
EC50 [Conf. limits] larval settlement [5]: 0.102 [0.072; 0.140] µg/mL
EC50 [5]: 0.1 µg/mL (≈ 0.183 µM)
inhibition at 31.25 µg/mL [6]: 25.1 ± 10.2%
% Biofilm Inhibition ± SEM C. marina [8]: N.I.

C=C1CCC(Cl)C(C)(C)C1C[C@@]12OC(C)(C)[C@H](Cl)C=C1C(=O)c1c(cc(O)c(C)c1O)C2=O (stereo partly drawn) [Napyradiomycin 12, 4-dehydro-4a-dechloro-napyradiomycin A80915A]
% growth inhibition C. marina [9]: did not inhibit growth
% growth inhibition M. hydrocarbonoclasticus [10]: did not inhibit growth
LC50 at 15 h [4]: > 12 µg/mL
EC50 [Conf. limits] larval settlement [5]: 0.947 [0.586; 1.473] µg/mL
EC50 [5]: 0.95 µg/mL (≈ 1.93 µM)
inhibition at 31.25 µg/mL [6]: 33.7 ± 5.1%
% Biofilm Inhibition ± SEM C. marina [8]: N.I.

Reference: PMC7024211, “Antifouling Napyradiomycins from Marine-Derived Actinomycetes Streptomyces aculeolatus” (Marine Drugs, 2020)
